Results as given in US10143648B2, “Peptide and oside extract of schisandra fruit and improvement in the response of the cutaneous neurosensory system” (LABORATOIRES EXPANSCIENCE, priority 2014, dated 2018).

Tests used:
CGRP = CGRP release by sensory neurons stimulated by capsaicin in co-culture with keratinocytes; assay type: cell-based; conditions: 60 min pre-incubation, extract 0.005%-0.1% (DM) or capsazepine 10^-5 M, capsaicin 10^-7 M, 15 min
Protocol: Sensory neurons were cultured in the presence of normal human epidermal keratinocytes. After 3 days of co-culture, the neurons project extensions in the form of free endings in contact with the keratinocytes. The cells were then incubated in the presence of the peptide and oside extract of Schisandra Sphenanthera at concentrations of 0.005%, 0.01%, 0.05% and 0.1% (DM) or the reference molecule, capsazepine, at a concentration of 10^−5 M (Sigma). After 60 minutes of pre-incubation, the neurons (in co-culture) were stimulated by capsaicin at a concentration of 10^−7 M (Sigma). After 15 minutes of stimulation, the culture supernatants were collected in order to assay the released CGRP. The CGRP assay was carried out using the CGRP assay kit (SpiBio). The significance of the results was confirmed by one-way analysis of variance followed by Dunnett's test.

TRPV1 receptor = biological target: T1, TRPV1 receptor (Homo sapiens, UniProt Q8NER1); experiment: Intracytoplasmic calcium mobilization (Fluo-4) in sensory neurons stimulated by capsaicin in co-culture with keratinocytes; assay type: cell-based; conditions: capsaicin 10^-6 M, vs. control
T1 construct: Sensory neurons cultured in the presence of normal human epidermal keratinocytes; endogenous in cells; host or cells: sensory neurons in co-culture with normal human epidermal keratinocytes
T1 sequence (Q8NER1 whole entry): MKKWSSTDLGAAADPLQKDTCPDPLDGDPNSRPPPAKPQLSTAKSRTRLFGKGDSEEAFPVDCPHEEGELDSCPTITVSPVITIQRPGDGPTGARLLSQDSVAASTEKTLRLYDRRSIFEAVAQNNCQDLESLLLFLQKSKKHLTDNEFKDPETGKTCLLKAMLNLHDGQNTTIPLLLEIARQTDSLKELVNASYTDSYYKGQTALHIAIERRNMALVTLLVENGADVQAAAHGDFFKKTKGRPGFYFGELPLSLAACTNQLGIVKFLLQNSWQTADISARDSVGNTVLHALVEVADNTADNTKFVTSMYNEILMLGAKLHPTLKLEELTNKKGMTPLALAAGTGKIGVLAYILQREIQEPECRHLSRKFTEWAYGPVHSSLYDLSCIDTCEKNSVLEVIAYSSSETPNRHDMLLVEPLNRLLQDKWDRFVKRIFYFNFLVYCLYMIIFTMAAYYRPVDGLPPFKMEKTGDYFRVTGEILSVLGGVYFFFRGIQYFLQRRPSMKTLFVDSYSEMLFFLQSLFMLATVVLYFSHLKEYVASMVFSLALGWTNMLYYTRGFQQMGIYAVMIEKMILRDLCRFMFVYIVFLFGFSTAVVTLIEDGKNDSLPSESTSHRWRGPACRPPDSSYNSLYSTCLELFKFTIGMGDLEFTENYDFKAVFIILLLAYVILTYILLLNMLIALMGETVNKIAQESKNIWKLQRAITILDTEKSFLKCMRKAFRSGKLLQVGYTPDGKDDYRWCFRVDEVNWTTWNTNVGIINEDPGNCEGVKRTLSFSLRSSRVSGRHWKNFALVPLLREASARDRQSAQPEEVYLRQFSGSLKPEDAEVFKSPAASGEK
Protocol: Activation of the TRPV1 receptor on sensory neurons can be evaluated by analyzing the electrical activity of sensory neurons by monitoring variations of the cytoplasmic calcium concentration. Indeed, when cells are stimulated by capsaicin, a massive amount of extracellular calcium enters the neuronal cytoplasm in order to trigger electrical activity and to cause a massive release of neuropeptides in the extracellular space. The variation of the level of fluorescence is analyzed by the incorporation of a calcium-dependent fluorescent probe (Fluo-4) in the cells. Thus, during the increase in calcium in the cells, the level of fluorescence increases in the cell body of the neurons. The higher this level, the higher the stimulation of the neurons. Sensory neurons cultured in the presence of normal human epidermal keratinocytes were incubated in the presence of the peptide and oside extract of Schisandra sphenanthera at concentrations of 0.005%, 0.01%, 0.05% and 0.1% (DM) or the reference molecule, capsazepine, at a concentration of 10^−5 M (Sigma). After 60 minutes of pre-incubation, the fluorescent probe, Fluo-4 (Molecular probe), was added to the culture medium and the cells were incubated 30 minutes. […] The significance of the results was confirmed by Bartlett's test.

Structure (SMILES)	release of CGRP induced by capsaicin (CGRP)	level of fluorescence (quantity of intracytoplasmic calcium) after addition of the stimulus (TRPV1 receptor)
Oc1cc2c(cc1O)CN(C(=S)NCCc1ccc(Cl)cc1)CCC2 [capsazepine]	inhibitory effect	
COc1cc(CNC(=O)CCCC/C=C/C(C)C)ccc1O [capsaicin]		significant increase in the level of fluorescence
